The supplement of paper PMC6045584
± gives the standard deviation of the averaged measurements.

Columns and labels:
[1] = compound: CC(=O)c1c(C)c2cnc(Nc3ccc(N4CCNCC4)cn3)nc2n(C2CCCC2)c1=O; assay: surviving fraction relative to DMSO-only wells; higher = less growth inhibition; conditions: exposure time: 5 days
In short: (§1)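 Lines were retained only if, across three screens, replicate Pearson r was >0.7 and median Z' was >0.3. Viability was measured as CellTiter-Glo luminescence and reported as surviving fraction relative to the median of DMSO-only wells. Readings followed 10 minutes at room temperature, after log-phase tumour cells seeded at 250–500 per well in 384-well plates had been exposed, from 24 hours after seeding, continuously for five days to inhibitors at 0.5, 1, 5, 10, 50, 100, 500 and 1000 nM.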

CARBOPLATIN = compound: O=C(O)C1(C(=O)O)CCC1.[NH2-].[NH2-].[Pt+2] [CARBOPLATIN]; assay: as above; conditions: exposure time: 5 days
In short: as §1

Row | Test System | surviving fraction ([1]; 0.5 nM) | surviving fraction ([1]; 1 nM) | surviving fraction ([1]; 5 nM) | surviving fraction ([1]; 10 nM) | surviving fraction ([1]; 50 nM) | surviving fraction ([1]; 100 nM) | surviving fraction ([1]; 500 nM) | surviving fraction ([1]; 1000 nM) | surviving fraction (CARBOPLATIN; 0.5 nM) | surviving fraction (CARBOPLATIN; 1 nM) | surviving fraction (CARBOPLATIN; 5 nM) | surviving fraction (CARBOPLATIN; 10 nM) | surviving fraction (CARBOPLATIN; 50 nM) | surviving fraction (CARBOPLATIN; 100 nM) | surviving fraction (CARBOPLATIN; 500 nM) | surviving fraction (CARBOPLATIN; 1000 nM)
1 | MDAMB157 BREAST | 0.929 ± 0.05 | 0.884 ± 0.027 | 0.974 ± 0.042 | 0.973 ± 0.053 | 1.03 ± 0.12 | 1.01 ± 0.13 | 1 ± 0.12 | 0.902 ± 0.061 | 1.04 ± 0.1 | 0.881 ± 0.024 | 1.02 ± 0.11 | 1.04 ± 0.066 | 1.06 ± 0.12 | 0.957 ± 0.056 | 0.949 ± 0.084 | 0.943 ± 0.13
2 | MDAMB134 BREAST | 1.031 ± 0.0085 | 1.07 ± 0.023 | 1.1 ± 0.013 | 1.07 ± 0.04 | 1.154 ± 0.0057 | 1.26 ± 0.22 | 1.28 ± 0.12 | 1.25 ± 0.11 | 0.906 ± 0.03 | 0.837 ± 0.13 | 0.856 ± 0.18 | 0.837 ± 0.033 | 1.01 ± 0.11 | 0.969 ± 0.24 | 1.05 ± 0.033 | 0.8405 ± 0.0021
3 | HT1080 SOFT TISSUE | 0.997 ± 0.026 | 1.04 ± 0.017 | 1.05 ± 0.017 | 1.03 ± 0.019 | 1.022 ± 0.0036 | 1 ± 0.041 | 0.9707 ± 0.0071 | 0.958 ± 0.024 | 1.07 ± 0.024 | 1.1 ± 0.011 | 1.09 ± 0.051 | 1.09 ± 0.013 | 1.03 ± 0.023 | 1.04 ± 0.044 | 1.03 ± 0.058 | 1.06 ± 0.062
4 | MHM BONE | 1.01 ± 0.029 | 0.98 ± 0.018 | 1.037 ± 0.0076 | 1.03 ± 0.011 | 1.05 ± 0.019 | 1.03 ± 0.016 | 0.966 ± 0.015 | 0.985 ± 0.044 | 1.01 ± 0.027 | 1.02 ± 0.025 | 1.08 ± 0.044 | 1.06 ± 0.058 | 1.09 ± 0.014 | 1.07 ± 0.028 | 1.02 ± 0.04 | 1.035 ± 0.0078
5 | SUM149 BREAST | 1.15 ± 0.042 | 1.09 ± 0.049 | 1.04 ± 0.076 | 0.943 ± 0.11 | 1.1 ± 0.065 | 1.14 ± 0.064 | 0.871 ± 0.024 | 0.88 ± 0.07 | 1.02 ± 0.019 | 1.04 ± 0.13 | 1.02 ± 0.049 | 0.943 ± 0.074 | 0.909 ± 0.06 | 0.905 ± 0.076 | 0.927 ± 0.057 | 0.927 ± 0.077
6 | COLO320DM LARGE INTESTINE | 1.084 ± 0.0093 | 1.08 ± 0.04 | 1.12 ± 0.038 | 1.1 ± 0.039 | 1.08 ± 0.065 | 1.05 ± 0.048 | 0.78 ± 0.061 | 0.735 ± 0.039 | 1.12 ± 0.013 | 1.14 ± 0.021 | 1.1 ± 0.045 | 1.06 ± 0.059 | 1.2 ± 0.057 | 1.2 ± 0.15 | 1.15 ± 0.094 | 1.14 ± 0.1
7 | MFM223 BREAST | 1.17 ± 0.042 | 1.13 ± 0.078 | 1.16 ± 0.11 | 1.19 ± 0.062 | 1.15 ± 0.14 | 1.15 ± 0.1 | 1.09 ± 0.031 | 1.03 ± 0.064 | 1.22 ± 0.071 | 1.22 ± 0.18 | 1.22 ± 0.18 | 1.15 ± 0.18 | 1.16 ± 0.021 | 1.12 ± 0.094 | 1.11 ± 0.077 | 1.06 ± 0.11
8 | HS578T BREAST | 0.985 ± 0.087 | 1.09 ± 0.068 | 1.02 ± 0.11 | 1.02 ± 0.048 | 1.11 ± 0.15 | 1.14 ± 0.19 | 0.949 ± 0.071 | 1.13 ± 0.082 | 1.06 ± 0.25 | 1.04 ± 0.091 | 1.07 ± 0.14 | 1.12 ± 0.16 | 0.964 ± 0.055 | 1.03 ± 0.13 | 0.992 ± 0.17 | 1 ± 0.076
9 | BT20 BREAST | 1.12 ± 0.19 | 1.06 ± 0.3 | 0.955 ± 0.23 | 0.982 ± 0.1 | 0.981 ± 0.32 | 0.924 ± 0.24 | 0.916 ± 0.22 | 0.86 ± 0.21 | 1.11 ± 0.04 | 1.19 ± 0.12 | 1.39 ± 0.49 | 1.24 ± 0.04 | 1.2 ± 0.088 | 1.29 ± 0.14 | 1.33 ± 0.16 | 1.11 ± 0.069
10 | SUM159 BREAST | 0.932 ± 0.26 | 0.942 ± 0.23 | 0.951 ± 0.18 | 0.893 ± 0.28 | 0.916 ± 0.3 | 0.842 ± 0.43 | 0.943 ± 0.27 | 0.925 ± 0.28 | 1.12 ± 0.024 | 1.1 ± 0.02 | 1.1 ± 0.016 | 1.09 ± 0.024 | 1.09 ± 0.022 | 1.09 ± 0.015 | 1.11 ± 0.022 | 1.092 ± 0.01
11 | SG27 HEADNECK | 1.18 ± 0.081 | 1.07 ± 0.1 | 1.02 ± 0.025 | 0.956 ± 0.086 | 1.08 ± 0.15 | 1.09 ± 0.1 | 1.06 ± 0.048 | 1.1 ± 0.33 | 1.13 ± 0.014 | 1.05 ± 0.017 | 1.12 ± 0.1 | 1.04 ± 0.038 | 1.18 ± 0.12 | 1.02 ± 0.13 | 1.14 ± 0.27 | 1.03 ± 0.11
